From article PMC7025694 (Acta Orthopaedica, 2018)

Type: in vivo, pig

time to a mean MIC of 8 µg/mL (intervertebral disc, pig, 1,000 mg i.v. over 100 min, sampling 8 h): could not be reached
Tmax, time to Cmax (plasma (unbound), pig, 1,000 mg i.v. single dose over 100 min, mean (95% CI)): 75 (61–89) min
Structure (SMILES): CN[C@H](CC(C)C)C(=O)N[C@H]1C(=O)N[C@@H](CC(N)=O)C(=O)N[C@H]2C(=O)N[C@H]3C(=O)N[C@H](C(=O)N[C@H](C(=O)O)c4cc(O)cc(O)c4-c4cc3ccc4O)[C@H](O)c3ccc(c(Cl)c3)Oc3cc2cc(c3O[C@@H]2O[C@H](CO)[C@@H](O)[C@H](O)[C@H]2O[C@H]2C[C@](C)(N)[C@H](O)[C@H](C)O2)Oc2ccc(cc2Cl)[C@H]1O [vancomycin]
